We go through two compounds from article PMC12510138, “Asymmetric Synthesis and Biological Evaluation of 1,3‐ and 1,4‐Disubstituted Isoquinoline‐Containing Lipoxin A4 Analogues” (Chemistry (Weinheim an Der Bergstrasse, Germany), 2025).

Experiment [1] deals with T1, ALX/FPR2 (Homo sapiens, UniProt P25090).
T1 sequence (P25090 1-351): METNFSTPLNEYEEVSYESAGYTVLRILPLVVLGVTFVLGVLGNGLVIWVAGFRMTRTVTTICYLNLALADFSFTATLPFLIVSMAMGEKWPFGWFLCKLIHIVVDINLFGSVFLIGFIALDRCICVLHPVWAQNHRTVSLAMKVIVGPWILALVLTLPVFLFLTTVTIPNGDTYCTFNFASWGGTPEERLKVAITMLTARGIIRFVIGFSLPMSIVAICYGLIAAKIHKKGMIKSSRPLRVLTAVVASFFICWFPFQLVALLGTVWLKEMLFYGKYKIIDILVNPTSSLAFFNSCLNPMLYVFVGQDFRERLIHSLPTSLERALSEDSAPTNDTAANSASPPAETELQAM
Briefly: intracellular Ca2+ flux (Fluo-4) in stably double transfected FPR2+/Gαq+ HEK-293 cells; wild-type HEK-293 cells as negative control; partial agonist. The experiment is classed as cell-based. Background: A change in cytosolic calcium serves as a functional read-out for many receptors and channels.

The target of experiment [2] is T1, ALX/FPR2. The experiment in a line: intracellular Ca2+ flux (Fluo-4) in stably double transfected FPR2+/Gαq+ HEK-293 cells; wild-type HEK-293 cells as negative control; full endogenous agonist. The experiment is classed as cell-based.

As for `CCCCC[C@@H](O)c1nc(/C=C/[C@@H](O)[C@@H](O)CCCC(=O)OC)cc2ccccc12` [(1R)-8], the “intracellular Ca2+ flux (Fluo-4) in stably double transfected FPR2+/Gαq+ HEK-293” value on ALX/FPR2 [1] is 100 nM.
With `CCCCC[C@H](O)/C=C/C=C\C=C\C=C\[C@@H](O)[C@@H](O)CCCC(=O)O` [compound 1, LXA4], the “intracellular Ca2+ flux (Fluo-4) in stably double transfected FPR2+/Gαq+ HEK-293” value on ALX/FPR2 [2] is listed as 10 nM.
